Measured values published in patent publication US12213955B2 (priority 2017, dated 2025).
Read-outs that look alike come from different tables or passages of the source.

What was measured:
[1] = system: hemagglutinin (HA)
[2] = system: MERS-CoV; assay type: cell-based
[3] = system: MERS-CoV; assay type: cell-based, MERS-CoV (HCoV-EMC/2012)
[4] = system: MERS-CoV; assay type: cell-based, MERS-CoV (HCoV-EMC/2012); remark: listed apart in the source
[5] = system: MERS-CoV nucleoprotein (NP); assay type: cell-based
[6] = system: MERS-CoV; assay type: cell-based; remark: listed apart in the source
[7] = system: MERS-CoV; assay type: cell-based; remark: listed apart in the source
[8] = system: MERS-CoV; assay type: cell-based; remark: listed apart in the source
[9] = system: TNF-α, IL-1β, IL-8; assay type: cell-based, human
[10] = system: MERS-CoV; experiment: microbe, parasite or virus in culture; assay type: cell-based
[11] = system: MERS-CoV; assay type: cell-based; remark: listed apart in the source
[12] = system: MERS-CoV; assay type: cell-based; remark: listed apart in the source
[13] = system: MERS-CoV; conditions: mouse, in vivo
[14] = system: MERS-CoV; assay type: cell-based, MERS-CoV (HCoV-EMC/2012); remark: listed apart in the source
[15] = system: SARS-CoV; assay type: cell-based, SARS-CoV (GZ50)
[16] = system: Zika virus (ZIKV); assay type: cell-based, ZIKV (Puerto Rico strain PRVABC59)
[17] = system: enterovirus-A71 (EV-A71); assay type: cell-based, Enterovirus A71 (SZ/HK08-5)
[18] = system: human adenovirus type 5 (AdV5); assay type: cell-based
[19] = system: Influenza A(H7N9) virus; conditions: mouse, in vivo
[20] = system: MERS-CoV; assay type: cell-based; remark: listed apart in the source
[21] = system: TK, CMV and SV40 promoters; assay type: cell-based
[22] = system: MERS-CoV; assay type: cell-based; remark: listed apart in the source
[23] = system: Calu-3 cells; assay type: cell-based, human
[24] = system: Huh7 cells; assay type: cell-based, human
[25] = system: fatty acid and cholesterol synthesis genes; assay type: cell-based, human
[26] = system: MERS-CoV; assay type: cell-based; remark: listed apart in the source
[27] = target: T1, n-SREBP1 (Homo sapiens, UniProt P36956); experiment: SREBP1 DNA (SRE) binding activity assay; assay type: biochemical
T1 construct: requires cleavage of pre-SREBPs to release the nuclear form (n-SREBPs); endogenous in cells; host or cells: Huh7 nuclear extract
T1 sequence (P36956 1-490 limits assumed): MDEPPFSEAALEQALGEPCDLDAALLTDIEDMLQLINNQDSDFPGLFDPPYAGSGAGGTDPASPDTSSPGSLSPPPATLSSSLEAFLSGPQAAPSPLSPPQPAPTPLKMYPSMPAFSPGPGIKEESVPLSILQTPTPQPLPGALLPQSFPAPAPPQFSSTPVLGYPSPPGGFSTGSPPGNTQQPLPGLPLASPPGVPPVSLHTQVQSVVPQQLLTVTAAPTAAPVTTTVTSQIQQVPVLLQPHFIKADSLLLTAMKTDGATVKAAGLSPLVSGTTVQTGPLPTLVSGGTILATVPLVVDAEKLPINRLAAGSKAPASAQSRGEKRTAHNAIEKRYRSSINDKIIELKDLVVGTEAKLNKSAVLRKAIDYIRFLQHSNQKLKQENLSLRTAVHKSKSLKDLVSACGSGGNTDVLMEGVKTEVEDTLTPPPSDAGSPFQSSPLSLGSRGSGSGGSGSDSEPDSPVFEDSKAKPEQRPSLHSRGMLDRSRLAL

[28] = target: T2, n-SREBP2 (Homo sapiens, UniProt Q12772); experiment: SREBP2 DNA (SRE) binding activity assay; assay type: biochemical; conditions: dose-dependent
T2 construct: requires cleavage of pre-SREBPs to release the nuclear form (n-SREBPs); endogenous in cells; Huh7 in the sister assay
T2 sequence (Q12772 1-484 limits assumed): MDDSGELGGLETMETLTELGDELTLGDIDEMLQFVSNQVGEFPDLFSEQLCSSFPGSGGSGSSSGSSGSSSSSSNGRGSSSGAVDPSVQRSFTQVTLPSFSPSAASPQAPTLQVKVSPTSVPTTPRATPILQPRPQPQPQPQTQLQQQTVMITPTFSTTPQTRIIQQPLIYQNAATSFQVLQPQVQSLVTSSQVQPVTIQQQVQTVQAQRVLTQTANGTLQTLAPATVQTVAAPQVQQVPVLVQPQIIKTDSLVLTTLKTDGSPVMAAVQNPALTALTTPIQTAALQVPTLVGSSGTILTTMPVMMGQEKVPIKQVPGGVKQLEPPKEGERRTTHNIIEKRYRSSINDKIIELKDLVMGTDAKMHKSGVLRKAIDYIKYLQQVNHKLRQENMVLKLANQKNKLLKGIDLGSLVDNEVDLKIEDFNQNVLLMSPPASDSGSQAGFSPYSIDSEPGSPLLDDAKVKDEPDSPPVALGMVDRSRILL

[29] = system: HMGCS promoter; assay type: cell-based, hamster
[30] = system: FAS-promoter; assay type: cell-based
[31] = system: MERS-CoV; assay type: cell-based; remark: listed apart in the source
[32] = system: double-membrane vesicles (DMVs); assay type: cell-based, African green monkey
[33] = system: different cell lines
[34] = mouse models, reported [43]; cited from earlier work
[35] = system: MERS-CoV; assay type: cell-based; remark: listed apart in the source
[36] = Middle East respiratory syndrome-related coronavirus, read-out: IC50 anti-MERS-CoV activity

## CCCCCCCCCCCCCCC(Br)C(=O)O (stereo not shown) [2-BP]
[1]
  palmitoylated-HA level: Reduced levels of palmitoylated-HA
  total HA protein: no impact on protein synthesis
[2]
  MERS-CoV replication: inhibited MERS-CoV replication in a dose-dependent manner

## C=C1CC[C@H](O)C/C1=C/C=C1\CCC[C@]2(C)[C@@H]([C@H](C)CCCC(C)(C)O)CC[C@@H]12 [25-Hydroxyvitamin D3]
[3]
  cell protection against MERS-CoV infection: protected Huh7 cells against MERS-CoV infection

## CC1(C)CCC(C)(C)c2cc(C(=O)Nc3ccc(C(=O)O)cc3)ccc21 [AM580]
[3]
  cell protection against MERS-CoV infection: protected cells against infection
[4]
  reduction of viral titer in the cell supernatant: > 3 logs
[5]
  expression of MERS-CoV nucleoprotein (NP): dramatically decreased
[6]
  MERS-CoV NP-positive cells: 5.38%
[7]
  immunofluorescence staining for MERS-CoV NP: near-complete suppression of virus infection
[8]
  MERS-CoV replication in multiple cell types: reduce MERS-CoV replication in multiple cell types
[9]
  virus-induced pro-inflammatory cytokine activation: suppress virus-induced pro-inflammatory cytokine activation
[10]; read-out: IC50 against MERS-CoV infection
  IC50: < 1000 nM
[11]
  PFU in intestinoid culture supernatant: no PFU were detectable
  expression of viral NP in intestinoids: markedly decreased expression of viral NP
  reduction of viral titer relative to DMSO-treated control intestinoids: approximately 6 log10 PFU/ml
[12]
  MERS-CoV NP expression in epithelial cells of terminal bronchioles: marked reduction in MERS-CoV NP expression
[13]
  alveolar damage and interstitial inflammatory infiltration in lung tissues: significantly improved
  mean body weight vs DMSO-treated control mice: generally higher
  reduction of viral RNA content of brain tissues vs DMSO-treated control: 4 log10
  viral RNA content in lung tissues vs DMSO-treated control: significantly (p<0.01) lower
[13]; ip, 12.5 mg/kg/day
  survival: 100%
[14]
  selectivity index (CC50/IC50): 507
[15]
  concentrations inhibiting replication of SARS-CoV: nanomolar to low micromolar
  selectivity index (CC50/IC50): 114
[16]
  concentrations inhibiting replication of ZIKV: nanomolar to low micromolar
[17]
  concentrations inhibiting replication of EV-A71: nanomolar to low micromolar
[18]
  concentrations inhibiting replication of AdV5: nanomolar to low micromolar
[19]
  lung histopathology: ameliorated virus-associated pulmonary inflammatory infiltration and bronchopneumonia
  mean body weight: gradually rebounded starting on day 8 post-challenge
  mean viral RNA load in lung tissues vs DMSO-treated control: significantly (p<0.01) lower
  survival rate: 60%
[20]
  antiviral potency of AM580 with RAR-α antagonist ER50891: did not diminish the antiviral potency
[21]
  transactivation of TK, CMV and SV40 promoters: did not inhibit transactivation of promoters
[22]
  MERS-CoV attachment or internalization: did not interfere with MERS-CoV attachment or internalization
[23]
  virus-induced perturbation of lipid homeostasis (lipidome): antagonized this virus-induced perturbation of lipid homeostasis
[24]
  accumulation of lipid droplets and cholesterol: significantly reduced their production
[25]
  cholesterol synthetic pathway genes with reduced mRNA expression (10/12): 83.3%
  fatty acid metabolism genes with significant decreases in mRNA expression (13/17): 76.5%
[26]
  loss of antiviral potency with increased n-SREBPs: about 1 log10 unit
[27]; Huh7 nuclear extraction, 20 μM
  binding of n-SREBP1 with its SRE: inhibited binding
[27]; pre-incubation 2 h
  binding partner: n-SREBP1 or SRE (pre-incubation): bind with n-SREBP1 rather than SRE
[28]
  binding of n-SREBP2 with its SRE: inhibited binding
[29]
  HMGCS-promoter-Luc reporter gene activity: concentration-dependent inhibition
[30]
  FAS-promoter-Luc reporter gene activity: concentration-dependent inhibition
[31]
  anti-MERS-CoV activity (viral yield): showed anti-MERS-CoV activity
  virus yield on addition of sodium palmitate: increased the virus yield
[32]
  DMV formation: no DMVs were noted
[1]
  palmitoylated-HA level: Reduced levels of palmitoylated-HA
  total HA protein: no impact on protein synthesis
[33]
  CC50: 100 to 200 µM
[34]
  teratogenicity: teratogenic effects

## CC1(C)CCC(C)(C)c2cc(NC(=O)c3ccc(C(=O)O)cc3)ccc21 [Tamibarotene]
[10]; [36]
  IC50: 320 ± 26 nM

## C=C(C)[C@@H]1CC[C@]2(CO)CC[C@]3(C)[C@H](CC[C@@H]4[C@@]5(C)CC[C@H](O)C(C)(C)[C@@H]5CC[C@]43C)[C@@H]12 [betulin]
[35]
  reduction in viral titer: about 1 log PFU/ml

## C=C(c1ccc(C(=O)O)cc1)c1cc2c(cc1C)C(C)(C)CCC2(C)C [bexarotene]
[10]; [36]
  IC50: 875 ± 15 nM

## PF429242
[35]
  reduction in viral titer: about 1 log PFU/ml
